# Laboratory results taken from paper PMC11539907, “Cytotoxicity of norstictic acid derivatives, a depsidone from Ramalina anceps Nyl” (Turkish Journal of Chemistry, 2024).
# Read-outs that look alike come from different tables or passages of the source.
# Assays:
# [1] = tested on: 786-0 (kidney carcinoma) cells; experiment: sulforhodamine B (SRB) cytotoxicity assay, 786-0; assay type: cell-based
# Source text: (§1) MCF7 (ATCC HTB-22, breast adenocarcinoma), 786-0 (ATCC CRL-1932, renal cell adenocarcinoma), PC-03 (ATCC CRL-1435, prostatic adenocarcinoma), HT-29 (ATCCHTB-38, colorectal adenocarcinoma), and HEP2 (ATCC CCL-23, laryngeal carcinoma) cells donated by Dr. João Ernesto de Carvalho (CPQBA – UNICAMP), and NIH/3T3 cells (ATCC CRL-1658, mouse embryonic fibroblast), purchased from the Rio de Janeiro Cell Bank, were used for the evaluation of cytotoxic activity. Cell maintenance and treatment were performed as described by Freshney. The sulforhodamine B (SRB) assay was carried out according to Brandão et al. and Bogo et al..
# (§2) The selectivity index (SI) measures a compound’s ability to target a neoplastic cell line rather than a normal cell line, indicating its potential for use in clinical trials. In the present study, the SI of each substance was calculated as the quotient of its GI50 value for normal NIH/3T3 cells divided by the GI50 value for a neoplastic cell line. SI values greater than 3.0 were considered significant.
# [2] = tested on: MCF7 (breast carcinoma) cells; experiment: sulforhodamine B (SRB) cytotoxicity assay, MCF7; assay type: cell-based
# Source text: as §1, §2
# [3] = tested on: HT-29 (colon carcinoma) cells; experiment: sulforhodamine B (SRB) cytotoxicity assay, HT-29; assay type: cell-based
# Source text: as §1, §2
# [4] = tested on: PC-03 (prostate carcinoma) cells; experiment: sulforhodamine B (SRB) cytotoxicity assay, PC-03; assay type: cell-based
# Source text: as §1, §2
# [5] = tested on: HEP2 (laryngeal carcinoma) cells; experiment: sulforhodamine B (SRB) cytotoxicity assay, HEP2; assay type: cell-based
# Source text: as §1, §2
# [6] = tested on: B16-F10 (murine melanoma) cells; experiment: sulforhodamine B (SRB) cytotoxicity assay, B16-F10; assay type: cell-based
# Source text: [Worded in the source for another cell line; this cell line is reported under the same test.] as §1, §2
# [7] = tested on: UACC-62 (human melanoma) cells; experiment: sulforhodamine B (SRB) cytotoxicity assay, UACC-62; assay type: cell-based
# Source text: [Worded in the source for another cell line; this cell line is reported under the same test.] as §1, §2
# [8] = tested on: NIH/3T3 (mouse embryonic fibroblast) cells; experiment: sulforhodamine B (SRB) cytotoxicity assay, NIH/3T3 normal cells; assay type: cell-based; details: Mus musculus, NIH3T3; NIH/3T3 normal cells, SRB assay; read-out: growth inhibition (GI50)
# Source text: as §1, §2
# [9] = tested on: UACC-62 (human melanoma) cells; details: cited from earlier work; for selectivity index (SI): 3T3 vs UACC-62
# [10] = tested on: 786-0 (kidney carcinoma) cells; design: method as in Bogo et al. (2020); details: ref Bogo et al. (2020), cited from earlier work
# [11] = tested on: MCF7 (breast carcinoma) cells; design: method as in Bogo et al. (2020); details: ref Bogo et al. (2020), cited from earlier work
# [12] = tested on: HT-29 (colon carcinoma) cells; design: method as in Bogo et al. (2020); details: ref Bogo et al. (2020), cited from earlier work
# [13] = tested on: PC-03 (prostate carcinoma) cells; design: method as in Bogo et al. (2020); details: ref Bogo et al. (2020), cited from earlier work
# [14] = tested on: HEP2 (laryngeal carcinoma) cells; design: method as in Bogo et al. (2020); details: ref Bogo et al. (2020), cited from earlier work
# [15] = tested on: B16-F10 (murine melanoma) cells; design: method as in Brandão et al. (2013); details: ref Brandão et al. (2013), cited from earlier work
# [16] = tested on: NIH/3T3 (mouse embryonic fibroblast) cells; design: method as in Bogo et al. (2020); details: NIH/3T3 normal cells; ref Bogo et al. (2020); read-out: growth inhibition (GI50); cited from earlier work
# [17] = tested on: tested tumor cells (786-0, MCF7, HT-29, PC-03, HEP2, B16-F10, UACC-62); details: cited from earlier work; for cytotoxic activity in words: panel of tumor cells
# TNBC MDA-MB-231 cells = tested on: TNBC MDA-MB-231 cells; design: method as in PMID 26744260; details: cited from earlier work
# [18] = tested on: MCF-10A mammary epithelial cells; design: method as in PMID 26744260; details: cited from earlier work
# [19] = tested on: MDA-MB-231/GFP cells implanted into athymic female nude mice; design: method as in PMID 26744260; details: cited from earlier work
smiles,measurement,setting,value
"COc1cccc2c1C(=O)c1c(O)c3c(c(O)c1C2=O)C[C@@](O)(C(=O)CO)C[C@@H]3O[C@H]1C[C@H](N)[C@H](O)[C@H](C)O1 [Doxorubicin, reference compound]",selectivity index (SI),[1]; GI50 on 3T3 cells divided by GI50 on 786-0,1.23
same,GI50,"[1]; Homo sapiens, 786-0 cells, SRB assay, read-out: growth inhibition (GI50)",0.43 µM
same,selectivity index (SI),[2]; GI50 on 3T3 cells divided by GI50 on MCF7,6.4
same,GI50,"[2]; Homo sapiens, MCF7 cells, SRB assay, read-out: growth inhibition (GI50)",0.086 µM
same,selectivity index (SI),[3]; GI50 on 3T3 cells divided by GI50 on HT-29,1.23
same,GI50,"[3]; Homo sapiens, HT-29 cells, SRB assay, read-out: growth inhibition (GI50)",0.43 µM
same,selectivity index (SI),[4]; GI50 on 3T3 cells divided by GI50 on PC-03,16.0
same,GI50,"[4]; PC-03 cells, SRB assay, read-out: growth inhibition (GI50)",0.034 µM
same,selectivity index (SI),[5]; GI50 on 3T3 cells divided by GI50 on HEP2,0.84
same,GI50,"[5]; Homo sapiens, HEp-2, HEP2 cells, SRB assay, read-out: growth inhibition (GI50)",0.65 µM
same,selectivity index (SI),[6]; GI50 on 3T3 cells divided by GI50 on B16-F10,1.28
same,GI50,"[6]; Mus musculus, B16-F10 cells, SRB assay, read-out: growth inhibition (GI50)",0.43 µM
same,selectivity index (SI),[7]; GI50 on 3T3 cells divided by GI50 on UACC-62,4.5
same,GI50,"[7]; Homo sapiens, UACC-62 cells, SRB assay, read-out: growth inhibition (GI50)",0.12 µM
same,GI50,[8],0.55 µM
same,selectivity index (SI),[9]; ref Brandão et al. (2013),1.2
"Cc1cc(O)c(C=O)c2c1C(=O)Oc1c(C)c(O)c3c(c1O2)C(O)OC3=O (centres unmarked) [compound 1, Norstictic acid]",selectivity index (SI),"[10]; 3T3 vs 786-0, from literature GI50 values",0.9
same,GI50,"[10]; 786-0 cells, read-out: growth inhibition (GI50)",759 µM
same,selectivity index (SI),[11]; 3T3 vs MCF7,4.3
same,GI50,"[11]; MCF7 cells, read-out: growth inhibition (GI50)",162 µM
same,selectivity index (SI),"[12]; 3T3 vs HT-29, from literature GI50 values",0.7
same,GI50,"[12]; HT-29 cells, read-out: growth inhibition (GI50)",916 µM
same,selectivity index (SI),[13]; 3T3 vs PC-03 (PC-3),3.6
same,GI50,"[13]; PC-03 cells, read-out: growth inhibition (GI50)",191 µM
same,selectivity index (SI),[14]; 3T3 vs HEP2,4.4
same,GI50,"[14]; HEP2 cells, read-out: growth inhibition (GI50)",157 µM
same,selectivity index (SI),[15]; 3T3 vs B16-F10,>4.1
same,GI50,"[15]; B16-F10 cells, read-out: growth inhibition (GI50)",168 µM
same,selectivity index (SI),[9]; ref Brandão et al. (2013),>7.6
same,GI50,"[9]; UACC-62 cells, ref Brandão et al. (2013), read-out: growth inhibition (GI50)",88.4 µM
same,growth inhibition effect (GI50),[9]; UACC-62 human melanoma cells,32.9 µg/mL
same,GI50,[16],696 µM
same,GI50,"[17]; MCF7, HEP2, PC-03, B16-F10, and UACC-62 cells, ref Bogo et al. (2020), Brandão et al. (2013), read-out: GI50, range",88.4 to 191 µM
same,cytotoxic activity in words,[17]; listed as Norstictic acid,poor activity
same,cytotoxic activity in words,[17]; listed as norstictic acid,low cytotoxic activity
same,"proliferation, migration, and invasion in words",TNBC MDA-MB-231 cells,"significantly suppressed the proliferation, migration, and invasion"
same,toxicity to nontumorogenic cells in words,[18],minimal toxicity
same,in vivo effect on tumor growth in words,[19],tolerability and significant inhibitory effect
